Measurements published in publication PMC13338763, “Harnessing albumin as a carrier for the delivery of anti-HIV drugs to the lymphatic system” (Acta biomaterialia, 2025).
Values after ≈ are worked out from the molar mass of the structure shown.

Legend:
[1] = Aqueous solubility; type: physicochemical; conditions: water
[2] = test system: HIV-WT virus; experiment: Drug susceptibility assay (luciferase reporter in TZM-bl cells); type: cell-based, human immunodeficiency virus; conditions: TZM-bl cells infected with HIV-WT, 48 h
Method: DTG and hEB-DTG luciferase expression levels were measured at different concentrations against TZM-bl reporter cell line in the presence of HIV-WT virus using the Britelite Plus Ultra-High Sensitivity Luminescence Reporter Gene Assay System (Revvity, MA, USA) according to the manufacturer’s protocol. TZM-bl cells were seeded in clear bottom white 96-well plate in a total volume of 200 μl DMEM-10 complete (+ 10 % FBS + 1 % penicillin/streptomycin) at a density of 1 × 10^4 cells/well. After 24 h, the cells were infected with the HIV-WT virus and treated with DTG and hEB-DTG in a concentration range (serial diluted 1:100) from 3 × 10^−1 mg/mL to 3 × 10^−15 mg/mL in PRF-10 complete media (+10 % FBS + 1 % penicillin/streptomycin). After 48 h of incubation, the cells were subjected to Britelite Plus Ultra-High Sensitivity Luminescence Reporter Gene Assay System (Revvity). The Britelite plus Lyophilized Substrate was reconstituted with the given Britelite Plus Reconstitution Buffer. After gently inverting and settling the solution for 5 min, 100 μL of the reconstituted Britelite Substrate solution was added to each well containing 100 μL of cells in the medium. Luminescence was measured with a Varioskan LUX Multimode Microplate Reader precisely after 2 min. Untreated/infected cells were used as baseline control. The inhibitory concentrations of each drug were presented as a percentage of OD value of the control cells. For each assay run, data points were collected in triplicate.

[3] = molecular target: BSA (Bos taurus, UniProt P02769); experiment: Gel retardation study with BSA; type: binding, bovine
Method: (§1) Twenty (20) μg EB, hEB, hEB-platin, or hEB-DTG were mixed with or without various amounts of BSA, globulin, fibrinogen or FBS in 200 μL saline water, then 40 μL of the mixed solution were loaded to 1.5 % agarose gel and run under 120 V for 30 min.

[4] = test system: TZM-bl cells; experiment: Cell viability assay (CellTiter-Glo 2.0); type: cell-based; conditions: 48 h
Method: DTG and hEB-DTG prodrug cytotoxicity was measured at different concentrations against TZM-bl reporter cell line in the presence or absence of HIV-WT virus using the CellTiter-Glo™ 2.0 Assay (Promega, WI, USA) according to the manufacturer’s protocol. TZM-bl cells were seeded in the 96-well white plate at a density of 1 × 10^4 cells/well, and after 24 h, the cells were infected with HIV-WT virus and treated with DTG and hEB-DTG in a concentration range (diluted 1:100) from 3 × 10^−1 mg/mL to 3 × 10^−15 mg/mL. After 48 h, cells were subjected to CellTiter-Glo™ 2.0 Assay (Promega). The CellTiter-Glo™ 2.0 Reagent was equilibrated to room temperature and gently mixed. 100 μL of CellTiter-Glo™ 2.0 Reagent was added to each well containing 100 μL of cells in the medium. Contents were shaken in an orbital shaker for 2 min and incubated at room temperature for precisely 10 min, and then luminescence was measured with a Varioskan LUX Multimode Microplate Reader. Untreated/infected cells were used as a baseline control. Viability of cells was presented as a percentage of OD values of the control cells. For each assay run, data points were collected in triplicate.

[5] = test system: HEK293T cells; experiment: Cellular uptake study in vitro (flow cytometry); type: cell-based; conditions: in words
Method: HEK293T or HUVEC cells were seeded to 6-well plates. After overnight incubation, the culture medium was replaced by fresh medium containing 10 μM EB and 2, 5, or 20 mg/mL BSA for incubation of 0.5, 1 or 3 h at 37 °C. Later, cells were washed with cold PBS and fixed with PBS containing 4 % (w/v) formaldehyde.
Cellular uptake of different treatments was quantified by flow cytometry. Fluorescence was examined at an excitation wavelength of 532 nm and an emission wavelength of 660 nm. 10 × 10^4 events were collected for each sample.

[6] = Release of DTG from hEB-DTG (storage stability and in vitro release kinetics, HPLC-MS); type: physicochemical; conditions: for DTG released (cumulative): PBS
[7] = Distribution in LN tissue and cells in LNs after i.v. injection (fluorescence microscopy, flow cytometry); type: in vivo; conditions: for fluorescence signal in LNs: 24 h post i.v. injection; for fluorescence signal in LNs / uptake by immune cell populations in LNs: in words; for uptake by immune cell populations in LNs: flow cytometry
Method: Five (5) μM/kg EB, hEB or hEB-DTG were i.v. injected into mice pretreated intraperitoneally with or without 2.5 mg/kg LPS for 24 h. After 24 h, LNs from different sites were collected and their signals of EB were checked under fluorescent microscopy. To evaluate the EB signals in various types of cells, LNs were disrupted mechanically using scissors, digested with a mixture of deoxyribonuclease I (0.3 mg/mL, Sigma-Aldrich) and TL Liberase (0.25 mg/mL, Roche, IN, USA) in serum-free RPMI-1640 at 37 °C for 30 min, and dispersed through a 40 μm cell strainer (BD Biosciences, CA, USA). After red blood cell lysis, live/dead cell discrimination was performed using a Zombie NIR Fixable Viability Kit (BioLegend, CA, USA, dilution: 1/1000) at 4 °C for 30 min in DPBS. Surface staining was performed at 4 °C for 30 min in FACS staining buffer (1 × phosphate-buffered saline/5 % FBS/0.5 % sodium azide) containing designated antibody cocktails (PerCP anti-mouse CD45 antibody, Brilliant Violet 785 anti-mouse CD4 antibody, FITC anti-mouse CD8 antibody, APC anti-mouse CD11b antibody, APC/Cyanine7 anti-mouse F4/80 antibody, Pacific Blue anti-mouse CD19 antibody and AF647 anti-mouse CD27 antibody; dilution: 1/200 for all antibodies). Flow cytometry was performed with LSRII (BD Biosciences) and Aurora (Cytek Biosciences, CA, USA) instruments and analyzed by FlowJo (BD Biosciences). The EB signals in each type of cell were quantified as mentioned above.

[8] = PK study: DTG in serum by HPLC-MS; type: in vivo, mice; conditions: 1 h post-injection
Method: Five (5) mg/kg DTG, or hEB-DTG containing equivalent amount of DTG were i.v. injected into mice. After 1, 4, 12, 24 or 48 h, serum and LNs were collected. Samples were homogenized and vortex in 1 mL mixture of water and methanol (1/1, v/v), and then another 1 mL mixture of methanol and acetonitrile (1/1, v/v) was added for extraction. After centrifugation at 12,500 g for 10 min, the supernatants were collected for measurement under HPLC-MS with a previously reported method. For hydrolysis of the ester bond in hEB-DTG to release free DTG, the biological samples suspension mentioned above were incubated in 300 mg/mL guanidine hydrochloride solution at 80 °C for 24 h before extraction.

[9] = test system: HUVEC monolayer; experiment: Transwell study: transport across a HUVEC monolayer, flow cytometry of HEK293T cells in lower chamber; type: cell-based; conditions: 8 h; for transport across endothelial cell monolayer: albumin-bound, in words; for EB transport across a HUVEC monolayer: EB-positive cells in the lower chamber: Fig. 1J
Method: HEK293T were seeded to 6-well plates as lower chamber and HUVEC were seeded to Corning (NY, USA) 6-well plate inserts (0.4 μm pore size) in another plate as upper chamber, respectively. After incubation and the cell layer on the upper chamber became intact, the culture medium in the inserts was replaced by fresh medium containing 0, 5 or 20 μg/mL filipin and 0 or 10 μg/mL LPS for overnight incubation. Next, the culture medium in the inserts was replaced with fresh medium containing 10 μM EB, hEB or hEB-DTG and 2 mg/mL BSA, then the inserts were moved to the wells cultured with HEK293T cells for incubation of 8 h at 37 °C. After that, HEK293T cells in the lower chambers were washed with cold PBS.
EB signals in HEK293T cells were quantified by flow cytometry. Fluorescence was examined at an excitation wavelength of 532 nm and an emission wavelength of 660 nm. 10 × 10^4 events were collected for each sample.

[10] = molecular target: T1, fibrinogen (Homo sapiens, UniProt P02671+P02675+P02679); experiment: Gel retardation study with fibrinogen; type: binding
T1 sequence (P02671 20-629 limits assumed): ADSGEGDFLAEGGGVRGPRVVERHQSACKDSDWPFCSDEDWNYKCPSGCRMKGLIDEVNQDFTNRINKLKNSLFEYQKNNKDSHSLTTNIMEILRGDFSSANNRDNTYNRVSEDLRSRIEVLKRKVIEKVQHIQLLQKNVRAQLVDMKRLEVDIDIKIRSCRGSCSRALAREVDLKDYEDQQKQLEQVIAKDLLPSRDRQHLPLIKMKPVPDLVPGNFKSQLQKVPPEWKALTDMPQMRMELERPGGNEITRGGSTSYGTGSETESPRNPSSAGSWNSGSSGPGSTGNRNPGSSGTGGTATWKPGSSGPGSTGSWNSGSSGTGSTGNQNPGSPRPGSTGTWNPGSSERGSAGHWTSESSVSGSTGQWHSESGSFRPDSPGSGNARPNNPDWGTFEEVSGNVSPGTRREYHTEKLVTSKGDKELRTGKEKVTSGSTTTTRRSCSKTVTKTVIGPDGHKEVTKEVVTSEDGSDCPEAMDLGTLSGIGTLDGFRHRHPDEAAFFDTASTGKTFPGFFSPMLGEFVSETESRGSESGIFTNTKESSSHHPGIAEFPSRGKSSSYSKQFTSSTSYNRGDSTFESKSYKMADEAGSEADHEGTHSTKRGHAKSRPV
T1 sequence (P02675 31-491): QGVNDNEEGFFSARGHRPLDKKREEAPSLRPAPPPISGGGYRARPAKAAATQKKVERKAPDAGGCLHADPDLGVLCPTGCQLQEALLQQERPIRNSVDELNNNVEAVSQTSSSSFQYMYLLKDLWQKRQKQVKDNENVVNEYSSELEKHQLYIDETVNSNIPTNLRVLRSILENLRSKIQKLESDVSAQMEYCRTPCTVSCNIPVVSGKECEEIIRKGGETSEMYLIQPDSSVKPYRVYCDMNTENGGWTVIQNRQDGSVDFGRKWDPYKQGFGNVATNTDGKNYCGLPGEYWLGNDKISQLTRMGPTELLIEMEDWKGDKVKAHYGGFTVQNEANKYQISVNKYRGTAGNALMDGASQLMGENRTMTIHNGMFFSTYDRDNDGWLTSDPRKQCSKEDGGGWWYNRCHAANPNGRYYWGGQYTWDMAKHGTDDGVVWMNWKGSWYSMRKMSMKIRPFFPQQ
T1 sequence (P02679 27-453): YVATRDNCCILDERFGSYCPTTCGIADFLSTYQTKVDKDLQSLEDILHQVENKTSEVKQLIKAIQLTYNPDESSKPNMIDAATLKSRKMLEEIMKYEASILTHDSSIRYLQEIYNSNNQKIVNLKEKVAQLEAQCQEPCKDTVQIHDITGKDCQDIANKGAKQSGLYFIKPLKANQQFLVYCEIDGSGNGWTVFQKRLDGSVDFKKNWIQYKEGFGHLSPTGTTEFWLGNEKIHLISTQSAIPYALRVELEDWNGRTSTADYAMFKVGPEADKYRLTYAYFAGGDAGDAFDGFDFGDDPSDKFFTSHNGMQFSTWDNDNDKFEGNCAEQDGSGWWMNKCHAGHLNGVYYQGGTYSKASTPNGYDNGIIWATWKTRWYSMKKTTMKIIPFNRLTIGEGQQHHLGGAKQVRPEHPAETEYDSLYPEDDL
Method: as §1

[11] = test system: albumin; parameters: method as in PMID 27682195; conditions: cited from earlier work
[12] = test system: globulin; experiment: Gel retardation study with globulin; type: binding
Method: as §1

Sequence of BSA (P02769 25-607): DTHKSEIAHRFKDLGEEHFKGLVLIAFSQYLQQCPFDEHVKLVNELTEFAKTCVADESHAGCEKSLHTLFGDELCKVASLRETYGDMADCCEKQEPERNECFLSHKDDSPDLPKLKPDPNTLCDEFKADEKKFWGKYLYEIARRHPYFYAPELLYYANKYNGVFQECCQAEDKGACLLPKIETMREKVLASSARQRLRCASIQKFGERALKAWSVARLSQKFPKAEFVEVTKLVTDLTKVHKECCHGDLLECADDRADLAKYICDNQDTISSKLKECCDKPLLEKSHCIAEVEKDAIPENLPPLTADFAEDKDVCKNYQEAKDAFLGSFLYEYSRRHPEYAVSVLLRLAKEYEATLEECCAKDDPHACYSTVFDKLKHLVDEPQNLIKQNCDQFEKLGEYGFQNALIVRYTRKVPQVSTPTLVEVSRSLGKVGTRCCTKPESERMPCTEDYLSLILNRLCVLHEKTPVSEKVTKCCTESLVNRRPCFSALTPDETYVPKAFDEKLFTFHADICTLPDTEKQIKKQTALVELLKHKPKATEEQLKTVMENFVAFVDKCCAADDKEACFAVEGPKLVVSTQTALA

Cc1cc(-c2ccc(NCC(=O)Oc3c4n(cc(C(=O)NCc5ccc(F)cc5F)c3=O)C[C@@H]3OCC[C@@H](C)N3C4=O)c(C)c2)ccc1/N=N/c1ccc2c(S(=O)(=O)O)cc(S(=O)(=O)O)c(N)c2c1O [hEB-DTG]
solubility [1]: 9640 µg/mL (≈ 9.62 mM)
antiviral potency relative to free DTG [2]: slightly less potent
concentrations that potently inhibited HIV-WT replication [2]: ≥ 10 ng/mL
binding affinity for BSA ([3]; in words): maintained strong binding ability
concentrations above which cell viability began to decline [4]: exceeded 1 μg/mL
concentrations with minimal cytotoxicity [4]: below 100 ng/mL
cellular uptake [5]: efficiently internalized
DTG released (cumulative) ([6]; 37 °C, over 96 h): ~ 60%
DTG released (cumulative) ([6]; 37 °C, within 24 h): ~ 30%
DTG release in serum compared with PBS ([6]; 37 °C, serum): slower
DTG released ([6]; over 30 days at room temperature, storage conditions): 0.83%
fluorescence signal in LNs [7]: comparable to that of hEB alone
uptake by immune cell populations in LNs [7]: significant EB signals were detected in all cell types analyzed
released DTG concentration in blood vs free DTG group [8]: slightly higher
transport across endothelial cell monolayer [9]: successfully transported

Cc1cc(-c2ccc(/N=N/c3ccc4c(S(=O)(=O)O)cc(S(=O)(=O)O)c(N)c4c3O)c(C)c2)ccc1/N=N/c1ccc2c(S(=O)(=O)O)cc(S(=O)(=O)O)c(N)c2c1O [EB, Evans Blue]
binding to fibrinogen [10]: no detectable binding
albumin/EB weight ratio at which the majority of EB molecules were bound to albumin ([3]; BSA, weight ratio): ≥ 25
EB molecules bound per albumin molecule [11]: up to 14
binding to globulin [12]: no detectable binding
cellular uptake [5]: efficient and albumin-dependent
fluorescence signal in LNs [7]: Robust EB fluorescence was detected in all LNs examined
EB signals in LNs of LPS-treated vs naive mice ([7]; 24 h post-injection, LPS 2.5 mg/kg i.p.): not significantly different
uptake by immune cell populations in LNs [7]: significant EB signal across multiple cell populations
EB transport across a HUVEC monolayer: EB-positive cells in the lower chamber ([9]; CT (no pretreatment)): 98.8%
EB transport across a HUVEC monolayer: EB-positive cells in the lower chamber ([9]; HUVEC pretreated with LPS + filipin): 9.66%
EB transport across a HUVEC monolayer: EB-positive cells in the lower chamber ([9]; HUVEC pretreated with LPS): 98.7%
EB transport across a HUVEC monolayer: EB-positive cells in the lower chamber ([9]; HUVEC pretreated with filipin): 5.04%
transport across endothelial cell monolayer [9]: strong fluorescent signals were detected in the lower chamber
